Test results as given in paper PMC9395488, “First-in-human study of IM156, a novel potent biguanide oxidative phosphorylation (OXPHOS) inhibitor, in patients with advanced solid tumors” (Investigational New Drugs, 2022).
Entries after “also recorded” stand apart in the source; their conditions may differ.

Assays:
[1] = SD rats, 50, 100/75, or 150/100 mg/kg QOD oral gavage; ref ImmunoMet, 2018; cited from earlier work
advanced solid tumors = assay: Preliminary efficacy (RECIST 1.1 / RANO response, PFS); assay type: in vivo, human
Description: A preliminary evaluation of efficacy was based on serial CT or magnetic resonance imaging (MRI). Response criteria were as defined by RECIST 1.1 or RANO. The following endpoints were to be assessed: overall response rate (ORR: complete response [CR] plus partial response [PR]), disease control rate (DCR: CR + PR + stable disease [SD]), DoR, and PFS.
The safety population was defined as all patients who received at least one dose of IM156. The PK population was not defined in the protocol but included all patients with sufficient PK data to perform adequate PK modeling. The efficacy population included all patients who underwent at least one tumor imaging assessment while receiving IM156. Safety was assessed using descriptive statistics (e.g., DLTs, AEs, laboratory tests, physical examination, 12-lead ECG). The incidence and number of events were reported for the DLTs observed in Cycle 1 per dose group. […] Two-sided 95% Confidence Intervals (CIs) were also provided. Adverse events and TRAEs were standardized with the System Organ Class and the Preferred Term using the Medical Dictionary for Regulatory Activities v23.0. In addition, TEAEs, serious adverse events (SAEs), TEAE severity, and TEAEs leading to withdrawal were presented by dose group. Efficacy data were to be presented by Waterfall and Swim Lane plots. Time to event endpoints (e.g., DoR, PFS) were determined using Kaplan–Meier estimations with the median value for each endpoint summarized.

glioblastoma (GSC11) = test system: glioblastoma (GSC11); set-up: method as in ImmunoMet, 2018; settings: glioblastoma animal model, control group 47 days; ref ImmunoMet, 2018; cited from earlier work
[2] = Plasma pharmacokinetics of IM156 in patients
Description: PK samples were also obtained on Cycle 1 Day 15 immediately prior to dosing and 2 h after dosing.
③ Method and schedule for administration:
IM156 will be administered in a fasted state (at least 2 hours after
and 1 hour before eating and drinking except water) except at
the single dose stage (described below).
In the single dose stage, IM156 will be administered with a high-
fast of at least 10 hours, subjects should eat a high-fat meal in
20 minutes starting 30 minutes prior to administration of IM156
with 240 mL of water. No food will be eaten for at least 4 hours
after the administration of IM156. Water is allowed as desired
except for one hour before and after the administration of IM156.
Phase 1b: advanced solid tumor or lymphoma
IM156 will be administered at the RP2D and schedule determined during
Phase 1a. The population(s) and dose and schedule of IM156 will be
defined in a protocol amendment.
Methodology This study is a Phase 1 clinical study to determine the MTD and RP2D of
IM156 as a single agent and to explore its safety, tolerability, PK
characteristics, exploratory markers, and preliminary efficacy.
The Phase 1 clinical study consists of two parts, Phase 1a and Phase 1b.
The Phase 1a is conducted to determine the MTD of IM156 as a single
agent. In addition, the safety, tolerability, preliminary efficacy, PK
characteristics, and exploratory markers of IM156 are evaluated in
patients with advanced solid tumors or lymphoma who have failed in the
standard therapies. Approximately 8 cohorts are planned in Phase 1a; the
number of cohorts and the dose and schedule of IM156 to be
administered at each dose levels will be determined by Safety Committee.
The Phase 1b is conducted to confirm the safety and tolerability, to
explore the preliminary efficacy, and to evaluate the exploratory markers
at the RP2D of IM156 in patients with advanced solid tumor or lymphoma.
Pharmacokinetic Evaluation
Pharmacokinetic evaluation on IM156 will be carried out at each dose level in all the patients
enrolled in the Phase 1a and Phase 1b study. Pharmacokinetic evaluation will be performed on
Day 1 and 15 (Day 15 is only for the Phase 1a study) of the first cycle (Cycle 1), and Day 1 of the
second cycle (Cycle 2). Day 1 Cycle 2 will be Day 29. On Day 1 of Cycles 1 and 2, patients may
be hospitalized in the ward where 24-hour monitoring is possible, and blood and urine will be
collected before and after IM156 adminstration for PK evaluation. The drug concentration will be
evaluated whenever analyses of patient samples are feasible during the clinical study. In PK
evaluation, area under the concentration-time curve (AUC) over the time interval from 0
extrapolated to infinity (AUCinf), AUC up to the last measurable concentration (AUC0–last),
maximum plasma drug concentration (Cmax), minimum plasma drug concentration (Cmin), time
taken to reach the maximum concentration (Tmax), terminal phase half life (T1/2), apparent total
clearance of the drug from plasma after oral administration (CL/F), accumulation ratio at steady
state, cumurative amount of unchanged drug excreted into the urine (Ae), renal clearance (CLr),
and so on will be determined and other PK parameters can be added, if necessary.

SD rats = settings: 2018, cited from earlier work
OXPHOS = test system: OXPHOS; set-up: method as in ImmunoMet, 2018; settings: at the highest concentrations; ref ImmunoMet, 2018; cited from earlier work
[3] = major metabolic organs such as lung, liver, kidney; cited from earlier work
Hs746T GC xenograft = test system: Hs746T GC xenograft; set-up: method as in ImmunoMet, 2018; settings: Hs746T GC xenograft in mice, each compound alone; IM156 10 or 30 mg/kg, Irinotecan 50 or 75 mg/kg; ref ImmunoMet, 2018; cited from earlier work
[4] = presence and absence of activated S9; ref ImmunoMet, 2018; cited from earlier work
[5] = test system: miR-17~92 overexpression Eµ-MYC lymphoma; set-up: method as in ImmunoMet, 2018; settings: nude mice, IM156 in drinking water 0.8 mg/mL, vs control line or regular drinking water; ref ImmunoMet, 2018; cited from earlier work
beagle dogs = settings: ref ImmunoMet, 2018, cited from earlier work
[6] = plasma, Cycle 1 Day 1, 100 mg oral, N = 3
[7] = plasma, Cycle 1 Day 1, 200 mg oral, N = 3
[8] = plasma, Cycle 1 Day 1, 400 mg oral, N = 3
[9] = plasma, Cycle 1 Day 1, 800 mg oral (both regimens combined), N = 6
[10] = plasma, Cycle 1 Day 1, 1200 mg oral (both regimens combined), N = 7
[11] = plasma, Day 27, cohort 1, 100 mg QOD, N = 2
[12] = plasma, Day 27, cohort 2, 200 mg QOD, N = 3
[13] = plasma, Day 27, cohort 3, 400 mg QOD, N = 3
[14] = plasma, Day 27, cohort 4, 800 mg QOD, N = 3
[15] = plasma, Day 27, cohort 5, 1200 mg QOD, N = 3
[16] = plasma, Day 27, cohort 6, 800 mg QD, N = 3
[17] = plasma, Day 27, cohort 7, 1200 mg QD, N = 2
[18] = plasma, Fed 1 (single dose with high-fat meal), 1200 mg oral, N = 3
[19] = 150 mg/kg/dose QOD oral, between Days 8 and 10, ref ImmunoMet
[20] = oral QOD over 27 days (14 doses), ref ImmunoMet

NC(=Nc1ccc(OC(F)(F)F)cc1)N=C(N)N1CCCC1 [IM156]
dose proportionality of exposure based on AUClast [1]: more than dose-proportional | dose proportionality of exposure based on Cmax [1]: less than dose-proportional | duration of prolonged SD / time on IM156 (advanced solid tumors; 1 patient with gastric adenocarcinoma): 169 days | duration of prolonged SD / time on IM156 (advanced solid tumors; 1 patient with gastric neuroendocrine carcinoma): 444 days | objective responses (CRs or PRs) (advanced solid tumors; 16 of 22 patients with response data): No objective responses; also recorded: No clinical responses | median PFS (advanced solid tumors; Kaplan–Meier): 54 days | median PFS, 95% CI (advanced solid tumors; Kaplan–Meier): 47 to 71 days | disease control rate (DCR) (advanced solid tumors; N = 22): 32% | patients with confirmed SD (advanced solid tumors; N = 22): 2 patients | patients with confirmed SD, percent (advanced solid tumors; N = 22): 9% | patients with stable disease (SD) as best response (advanced solid tumors; N = 22): 7 patients | patients with stable disease (SD) as best response, percent (advanced solid tumors; N = 22): 32% | median survival time (glioblastoma (GSC11)): 82 days | accumulation of plasma exposure at steady-state ([2]; 800 mg QD, Day 27 vs Day 1): modest accumulation | maximum plasma exposure achieved ([2]; daily doses of 800 mg): ~ 6 μM | dose proportionality of plasma exposure (AUC0-24, Cmax) ([2]; doses ≥ 200 mg): increased dose proportionally; also recorded: increased in a dose proportional manner; also recorded: dose proportionality | AUC0-24 [2, 6]: 482 ± 342 ng·h/mL | Cmax [2, 6]: 38.7 ± 31.1 ng/mL | Tmax [2, 6]: 6.67 ± 2.31 h | AUC0-24 [2, 7]: 2980 ± 251 ng·h/mL | Cmax [2, 7]: 189 ± 41.0 ng/mL | Tmax [2, 7]: 4.67 ± 3.06 h | AUC0-24 [2, 8]: 4380 ± 3010 ng·h/mL | Cmax [2, 8]: 362 ± 131 ng/mL | Tmax [2, 8]: 3.33 ± 1.15 h | AUC0-24 [2, 9]: 7520 ± 3820 ng·h/mL | Cmax [2, 9]: 829 ± 260 ng/mL | Tmax [2, 9]: 2.25 ± 1.47 h | AUC0-24 [2, 10]: 14,100 ± 6970 h*ng/mL | Cmax [2, 10]: 1100 ± 616 ng/mL | Tmax [2, 10]: 5.00 ± 3.00 h | Plasma AUC0-24 ([2]; plasma, Day 1, cohort 4 only, 800 mg QOD): 7250 ± 3960 ng·h/mL | Plasma AUC0-24 ([2]; plasma, Day 1, cohort 5 only, 1200 mg QOD): 10600 ± 4820 ng·h/mL | Plasma AUC0-24 ([2]; plasma, Day 1, cohort 6 only, 800 mg QD): 7790 ± 4530 ng·h/mL | Plasma AUC0-24 ([2]; plasma, Day 1, cohort 7 only, 1200 mg QD): 16800 ± 7720 ng·h/mL | mean Tmax values, range over doses ([2]; plasma, Day 27): 1.2 to 4.0 h | AUC0-24 [2, 11]: 1070 ± 330 ng·h/mL | AUC0-48 [2, 11]: 1400 ± 383 ng·h/mL | AUCINF [2, 11]: 1620 ± 473 ng·h/mL | CL/F [2, 11]: 64.5 ± 18.8 L/h | Cmax [2, 11]: 109 ± 54.8 ng/mL | Tmax [2, 11]: 2.50 ± 2.12 h | Vz/F [2, 11]: 1580 ± 291 L | t1/2 [2, 11]: 17.3 ± 1.91 h | AUC0-24 [2, 12]: 4200 ± 1140 ng·h/mL | AUC0-48 [2, 12]: 6010 ± 1810 ng·h/mL | AUCINF [2, 12]: 6180 ± 2220 ng·h/mL | CL/F [2, 12]: 34.6 ± 12.4 L/h | Cmax [2, 12]: 272 ± 43.8 ng/mL | Tmax [2, 12]: 4.00 ± 0.00 h | Vz/F [2, 12]: 837 ± 266 L | t1/2 [2, 12]: 16.9 ± 0.752 h | AUC0-24 [2, 13]: 7630 ± 5410 ng·h/mL | AUC0-48 [2, 13]: 10,900 ± 8770 h*ng/mL | CL/F [2, 13]: 67.8 ± 28.3 L/h | Cmax [2, 13]: 530 ± 324 ng/mL | Tmax [2, 13]: 4.00 ± 0.00 h | Vz/F [2, 13]: 1160 ± 256 L | t1/2 [2, 13]: 12.4 ± 2.56 h | AUC0-24 [2, 14]: 12,900 ± 9470 h*ng/mL | AUC0-48 [2, 14]: 18,200 ± 14,700 h*ng/mL | AUCINF [2, 14]: 11,200 ± 5740 h*ng/mL | CL/F [2, 14]: 82.4 ± 42.3 L/h | Cmax [2, 14]: 949 ± 408 ng/mL | Tmax [2, 14]: 1.17 ± 0.764 h | Vz/F [2, 14]: 1650 ± 413 L | t1/2 [2, 14]: 14.9 ± 4.20 h | AUC0-24 [2, 15]: 21,800 ± 3680 h*ng/mL | AUC0-48 [2, 15]: 29,800 ± 4700 h*ng/mL | AUCINF [2, 15]: 33,100 ± 6120 h*ng/mL | CL/F [2, 15]: 36.9 ± 6.83 L/h | Cmax [2, 15]: 1580 ± 75.3 ng/mL | Tmax [2, 15]: 3.33 ± 1.15 h | Vz/F [2, 15]: 863 ± 312 L | t1/2 [2, 15]: 15.9 ± 2.90 h | AUC0-24 [2, 16]: 33,600 ± 9780 h*ng/mL | Cmax [2, 16]: 1870 ± 485 ng/mL | Tmax [2, 16]: 4.00 ± 0.00 h | AUC0-24 [2, 17]: 36,300 ± 7550 h*ng/mL | Cmax [2, 17]: 1980 ± 94.8 ng/mL | Tmax [2, 17]: 4.00 ± 0.00 h | AUC0-24 [2, 18]: 17,600 ± 12,800 h*ng/mL | Cmax [2, 18]: 1220 ± 910 ng/mL | Tmax [2, 18]: 6.83 ± 5.84 h | mean plasma half-life (t1/2) values, range ([2]; plasma, post dose administration): 12—17 h | tolerability (SD rats; 50 mg/kg/dose QOD oral gavage, 27 days, ref ImmunoMet): well tolerated | preterminal euthanasia, females (SD rats; [19]): 3/15 | preterminal euthanasia, males (SD rats; [19]): 2/15 | no-observed-adverse-effect level (NOAEL) (SD rats; [20]): 50 mg/kg/dose | severely toxic dose in 10% of the rats (STD10) (SD rats; [20]): 100 mg/kg/dose | time to show OXPHOS inhibition (OXPHOS): ≤ 20 min | tissue concentrations compared to plasma [3]: 30–80 fold | reduction of tumor volume (Hs746T GC xenograft): ~ 70% | genotoxicity in two in vitro assays [4]: not genotoxic | extension of overall animal survival [5]: approximately 50% | tolerability (beagle dogs; beagle dogs, 20, 40, or 80 mg/kg/dose QOD oral gavage, 27 days): tolerated and did not result in morbidity/mortality | highest non-severely toxic dose (HNSTD) (beagle dogs; beagle dogs, oral QOD over 27 days (14 doses), highest dose tested): ≥ 80 mg/kg
